According to patent US8236756B2, “Prodrugs cleavable by CD26” (Consejo Superior de Investigaciones Clentificas (CSIC), priority 2003, dated 2012):

Assays:
[1] = Solubility in Milli-Q water; format: physicochemical; conditions: 1 mg/ml in Milli-Q water; 2 × 10 sec sonication, 4 days shaking, room temperature; centrifugation, U.V. spectrum
Text: It is also clear that the nature of the dipeptide moiety present on NAP-TSAO markedly affect prodrug solubility in water.

[2] = Conversion of prodrugs to parent compound by human serum diluted in PBS; format: in vitro ADME; conditions: 50 μM; 20% human serum in PBS (FIG. 6)
Experimental: Human and bovine serum were incubated for 3 hr, 6 hr and/or 24 hr at 37° C. in the presence of 50 μM CAM-405. The sera were diluted in PBS at a final concentration of 0.5, 1, 2.5 or 5%. […] The longer the incubation time, and the higher the serum concentration used, the faster the conversion of CAM-405 to CAM-212 occurred (FIG. 4). As also noted for CD26, HS- and BS-catalysed reaction slowed down in function of time, and was not linearly proportional with serum concentration (FIG. 4). These findings provide again evidence for a pronounced feed-back inhibition of dipeptidyl-peptidase activity in human and bovine serum by the released Val-Pro dipeptide. HS was more efficient in converting CAM-405 to CAM-212 than BS (FIG. 4). Since 1% HS is able to hydrolyse ˜20% of 50 μM CAM-405 within 3 hrs of incubation, it could be calculated that undiluted serum would have been able to convert this prodrug amount to its parent compound at a hundred fold higher speed, that is, within 1.8 min, provided that no feed-back inhibition would have occurred (as expected in the intact organism where release of Pro-Val would immediately result in disappearance from the plasma due to several mechanisms including organ uptake, renal excretion, etc.).
Only a very limited amount of NAP-TSAO (but not D-Pro-NAP-TSAO) had been detected (FIG. 6).
Ten percent BS or HS converted 40 to 70% of PI-2 to PI-1 in one hour (FIG. 10). Two percent BS and HS converted PI-2 to PI-1 by 8% and 25%, respectively. After 4 hrs, 35% and 95% of compound was hydrolyzed by BS and HS, respectively (FIG. 11).
The TSAO derivatives depicted in FIG. 1 can be synthesised as described below. GlyPro-pNA (GP-pNA), Diprotin A and Val-Pro were purchased from Sigma-Aldrich (Bornem, Belgium). CD26 was purified as described before [De Meester et al. J. Immunol. Methods (1996), 189: 99-105]. Foetal bovine serum (FBS) was obtained from Integro (Dieren, The Netherlands). Human serum represented a pooled serum that was derived from 10 healthy volunteers (blood donors). Human lymphocyte CEM cells were derived from the ATCC (Rockville, Md.).

purified CD26 = target: T1, purified CD26 (Homo sapiens, UniProt P27487); assay: Conversion of peptide prodrugs to parent compound by purified CD26 (HPLC); format: biochemical; conditions: for Conversion % to parent compound by purified CD26, 1 h / Conversion % to parent compound by purified CD26, 4 h / Conversion % to parent compound by purified CD26, 24 h: Table 1; for % conversion to parent compound by purified CD26, 1 h / % conversion to parent compound by purified CD26, 4 h / % conversion to parent compound by purified CD26, 24 h: Table 2
T1 construct: made in house
Experimental: To reveal whether CD26 recognizes such synthetic di/tripeptide derivatives of lipophilic nucleoside analogues as a substrate, 50 μM CAM-405 or CAM-431 was exposed to 5.7 mUnits of purified CD26, and the conversion of CAM-405 or CAM-431 to respectively CAM-212 or CAM-403 (Val-NAP-TSAO) was recorded in function of incubation time by HPLC analysis. […] Within the first 10 min of the reaction, at least 20% of CAM-405 had been converted to CAM-212, fifty percent of the TSAO dipeptide derivative was converted to CAM-212 within 30 min of the reaction and ˜67% of CAM-405 was hydrolyse after 60 min. Thus, the reaction rate started already to slow down after the first 10 min of drug exposure (FIG. 2). Most likely, the release of the reaction product Val-Pro dose-dependently feed-back inhibited the CD26-catalysed dipeptidyl-peptidase reaction. […] Thus, in the presence of 50 μM CAM-405, hydrolysis of 50% of CAM-405 to CAM-212 results in the appearance of 25 μM Val-Pro, that is a concentration that (feed-back) inhibits the CD26 reaction by ˜50%. These findings explain why the CD26-catalysed reaction levels-off shortly after the start of the exposure of the drug to CD26. […] Thus, a further level of modulation of the rate of prodrug release can be introduced by choosing a dipeptide moiety that competes for the active site of CD26, until the dipeptide has diffused from the tissue wherein CD26 is present. The inhibitory activity of any dipeptide can be evaluated by the above mentioned assay.
The conversion rate in function of time is given in Table 1 for NAP-TSAO-dipeptides where the dipeptide consists of: Val-Pro, Val-D-Pro, Asp-Pro, Lys-Pro, Tyr-Pro, Gly-Pro, Val-4-hydroxyPro, Gly-3,4-dihydroxyPro, but also Val-Gly, Val-Ala, Val-Leu and Val-Phe. It is clear that the conversion rate to the parent NAP-TSAO differs depending the nature of the dipeptide. Also, when the terminal amine of the dipeptide has been blocked by a lipophilic group (i.e. methyl, Z or Fmoc), the prodrug looses measurable substrate activity for CD26.
The conversion rate in function of time is given in Table 2 for tetrapeptide NAP-TSAO compounds where the tetrapeptide consists of: Val-Pro-Val-Pro [SEQ ID no:6] (CAM 467), Val-Ala-Val-Pro [SEQ ID no:7] (CAM 473) or Lys-Pro-Asp-Pro [SEQ ID no:8] (CAM 477). […] Only traces of dipeptide prodrug (CAM 405) is seen as intermediate in the conversion of the tetrapeptide CAM 473 to NAP-TSAO.
All enzyme activity assays were performed in Eppendorf tubes on a heating block at 37° C. To each tube were added 32 μl CD26 (at a final concentration of 1.5 milliUnits) or 10 μl foetal bovine serum (BS) (final concentration: 2.5% BS in PBS; preheated at 56° C. for 30 min) or 10 μl human serum (HS) (final concentration: 2.5% HS in PBS), 40 μl of appropriate concentrations of inhibitor (Diprotin A) solution in PBS (for the exact concentrations, see the legend to FIG. 5), CAM-405 (the substrate of the reaction) at […] (final concentration) and PBS to reach a total volume of 400 μl. The pH of the reaction mixture was 7.5, which is virtually identical to the physiological pH of plasma. The reaction was started by the addition of the enzyme or serum and carried out at 37° C. After 5 hr, 100 μl reaction mixture was taken from the Eppendorf tube and added to 200 μl cold methanol to precipitate the proteins. After 10 min standing on ice, the contents of the tubes were centrifuged and the supernatants analysed by HPLC on a reverse phase column (RP-8, Merck Laboratories). CAM-405 was separated from CAM-212 (the product of the reaction) by a gradient of 50 mM sodium phosphate+5 mM heptane sulfonic acid pH 3.2 (Buffer A) and acetonitrile (Buffer B) as follows: Buffer A: 98%+2% Buffer B, 2 min; linear gradient to 20% Buffer. […]

T1 sequence (P27487 whole entry): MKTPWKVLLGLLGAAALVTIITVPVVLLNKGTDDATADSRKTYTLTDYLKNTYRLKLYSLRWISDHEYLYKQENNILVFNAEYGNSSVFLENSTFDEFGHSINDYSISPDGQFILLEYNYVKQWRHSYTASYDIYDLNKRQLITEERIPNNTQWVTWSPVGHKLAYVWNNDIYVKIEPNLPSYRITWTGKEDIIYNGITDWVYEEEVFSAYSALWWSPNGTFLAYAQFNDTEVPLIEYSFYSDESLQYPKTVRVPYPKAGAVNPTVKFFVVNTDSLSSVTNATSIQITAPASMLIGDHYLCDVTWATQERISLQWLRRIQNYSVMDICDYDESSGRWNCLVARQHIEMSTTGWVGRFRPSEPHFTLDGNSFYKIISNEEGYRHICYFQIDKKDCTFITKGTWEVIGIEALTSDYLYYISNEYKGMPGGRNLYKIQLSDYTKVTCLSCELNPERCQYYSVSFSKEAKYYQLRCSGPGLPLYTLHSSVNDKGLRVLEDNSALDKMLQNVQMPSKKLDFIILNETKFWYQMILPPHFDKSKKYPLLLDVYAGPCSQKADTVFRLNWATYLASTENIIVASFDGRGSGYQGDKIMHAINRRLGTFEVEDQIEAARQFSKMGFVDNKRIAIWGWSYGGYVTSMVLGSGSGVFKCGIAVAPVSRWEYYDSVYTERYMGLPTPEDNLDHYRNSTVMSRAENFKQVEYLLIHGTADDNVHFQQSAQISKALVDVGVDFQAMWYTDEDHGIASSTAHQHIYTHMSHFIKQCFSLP

Conversion % to parent compound by purified CD26, 1 h (purified CD26; purified CD26 1.5 mUnits, 1 h) | Conversion % to parent compound by purified CD26, 4 h (purified CD26; purified CD26 1.5 mUnits, 4 h) | Conversion % to parent compound by purified CD26, 24 h (purified CD26; purified CD26 1.5 mUnits, 24 h) | % conversion to parent compound by purified CD26, 1 h (purified CD26; purified CD26 1.5 mUnits, 1 h) | % conversion to parent compound by purified CD26, 4 h (purified CD26; purified CD26 1.5 mUnits, 4 h) | % conversion to parent compound by purified CD26, 24 h (purified CD26; purified CD26 1.5 mUnits, 24 h) | Conversion / substrate activity with purified CD26, in words (purified CD26) | Compound | further results
 |  |  |  |  |  |  | Cc1cn([C@@H]2O[C@H](CO[Si](C)(C)C(C)(C)C)[C@@]3(OS(=O)(=O)C=C3N)[C@H]2O[Si](C)(C)C(C)(C)C)c(=O)n(C)c1=O [m-3T-TSAO, 3-methyl-TSAO-T, reference compound] | Spectrum (~265 nm) [1]: 0.100
0% | 0% | 0% |  |  |  |  | Cc1cn(C2OC(CO[Si](C)(C)C(C)(C)C)C3(OS(=O)(=O)C=C3N)C2O[Si](C)(C)C(C)(C)C)c(=O)n(CCCNC(=O)C(Cc2ccccc2)NC(=O)C(N)C(C)C)c1=O (stereo not drawn) [CAM-428, H-Val-Phe-NAP-TSAO] | Conversion by 20% human serum, in words [2]: convert to a limited extent
0% | 6.5% | 35% | 0% | 6.5% | 35% |  | Cc1cn(C2OC(CO[Si](C)(C)C(C)(C)C)C3(OS(=O)(=O)C=C3N)C2O[Si](C)(C)C(C)(C)C)c(=O)n(CCCNC(=O)[C@H](C)NC(=O)[C@@H](N)C(C)C)c1=O (stereo partly drawn) [CAM-424, H-Val-Ala-NAP-TSAO] | Spectrum (~265 nm) [1]: 0.650
 | 51% | ~70% |  |  |  | hydrolyse by CD26 | Cc1cn(C2OC(CO[Si](C)(C)C(C)(C)C)C3(OS(=O)(=O)C=C3N)C2O[Si](C)(C)C(C)(C)C)c(=O)n(CCCNC(=O)C(NC(=O)C2CCCN2C(=O)C(N)C(C)C)C(C)C)c1=O (stereo not drawn) [CAM-431, H-Val-Pro-Val-NAP-TSAO] | Conversion by 20% human serum, in words [2]: very efficiently converted predominantly to Val-TSAO
0% | 0% | 0% |  |  |  |  | Cc1cn(C2OC(CO[Si](C)(C)C(C)(C)C)C3(OS(=O)(=O)C=C3N)C2O[Si](C)(C)C(C)(C)C)c(=O)n(CCCNC(=O)[C@@H](NC(=O)OCc2ccccc2)C(C)C)c1=O (stereo partly shown) [CAM-404, Z-Val-NAP-TSAO] | 
 |  |  | 2.1% | 6.0% | 26% | clearly occurs in two steps | Cc1cn(C2OC(CO[Si](C)(C)C(C)(C)C)C3(OS(=O)(=O)C=C3N)C2O[Si](C)(C)C(C)(C)C)c(=O)n(CCCNC(=O)C2CCCN2C(=O)C(CC(=O)O)NC(=O)C2CCCN2C(=O)C(N)CCCCN)c1=O (stereo not drawn) [CAM-477, H-Lys-Pro-Asp-Pro-NAP-TSAO] | % conversion to dipeptide intermediate by purified CD26, 1 h (purified CD26; Table 2 footnote a, purified CD26 1.5 mUnits, 1 h): 88%; % conversion to dipeptide intermediate by purified CD26, 4 h (purified CD26; Table 2 footnote a, purified CD26 1.5 mUnits, 4 h): 86%; % conversion to dipeptide intermediate by purified CD26, 24 h (purified CD26; Table 2 footnote a, purified CD26 1.5 mUnits, 24 h): 74%
 |  |  | 0% | 0% | 0% |  | Cc1cn(C2OC(CO[Si](C)(C)C(C)(C)C)C3(OS(=O)(=O)C=C3N)C2O[Si](C)(C)C(C)(C)C)c(=O)n(CCCNC(=O)C2CCCN2C(=O)C(NC(=O)C2CCCN2C(=O)C(NC(=O)OCc2ccccc2)C(C)C)C(C)C)c1=O (stereo not drawn) [CAM-466, Z-Val-Pro-Val-Pro-NAP-TSAO] | 
 | 0% | 0% |  |  |  |  | H-Gly-3.4Hypro-NAP-TSAO [CAM-465] | 
 | 0% | 0% |  |  |  |  | NH2-Val-HyPro(Bzl)-NAP-TSAO [CAM-462] | 
0% | 0% | 0% |  |  |  |  | Cc1cn(C2OC(CO[Si](C)(C)C(C)(C)C)C3(OS(=O)(=O)C=C3N)C2O[Si](C)(C)C(C)(C)C)c(=O)n(CCCNC(=O)C(CC(C)C)NC(=O)C(N)C(C)C)c1=O (stereo not drawn) [CAM-426, H-Val-Leu-NAP-TSAO] | Conversion by 20% human serum, in words [2]: convert to a limited extent
 | 85% | 99% |  | 85% | 99% | completely removed | Cc1cn(C2OC(CO[Si](C)(C)C(C)(C)C)C3(OS(=O)(=O)C=C3N)C2O[Si](C)(C)C(C)(C)C)c(=O)n(CCCNC(=O)[C@@H]2CCCN2C(=O)[C@@H](N)CCCCN)c1=O (stereo partly drawn) [CAM-437, H-Lys-Pro-NAP-TSAO] | 

Compound | Conversion % to parent compound by purified CD26, 1 h (purified CD26; purified CD26 1.5 mUnits, 1 h) | Conversion % to parent compound by purified CD26, 4 h (purified CD26; purified CD26 1.5 mUnits, 4 h) | Conversion % to parent compound by purified CD26, 24 h (purified CD26; purified CD26 1.5 mUnits, 24 h) | % conversion to parent compound by purified CD26, 1 h (purified CD26; purified CD26 1.5 mUnits, 1 h) | % conversion to parent compound by purified CD26, 4 h (purified CD26; purified CD26 1.5 mUnits, 4 h) | % conversion to parent compound by purified CD26, 24 h (purified CD26; purified CD26 1.5 mUnits, 24 h) | Conversion / substrate activity with purified CD26, in words (purified CD26) | further results
Cc1cn(C2OC(CO[Si](C)(C)C(C)(C)C)C3(OS(=O)(=O)C=C3N)C2O[Si](C)(C)C(C)(C)C)c(=O)n(CCCNC(=O)C2CCCN2C(=O)C(NC(=O)C(C)NC(=O)C(N)C(C)C)C(C)C)c1=O (stereo not drawn) [CAM-473, H-Val-Ala-Val-Pro-NAP-TSAO] |  |  |  | 12% | 54% | 70% | occurs faster than with the Val-Ala-NAP-TSAO | 
